Results on 26 compounds are retold here after US12655142B2 (Merck Patent GmbH, priority 2019, dated 2026).

For experiment [1], the target named is T1, GIST430/654 cell line expressing mutated constitutively active cKIT receptor tyrosine kinase (Δ560-576 deletion and V654A point mutation) (Homo sapiens, UniProt P10721, DEL560-576/V654A).
T1 construct: endogenous in cells; host or cells: GIST430/654 cells
Briefly: Cellular cKIT autophosphorylation (phospho-Y307-cKIT, Luminex bead assay) in GIST430/654 cells. The format is cell-based. The conditions noted are these: compounds 45 min, read-out: GIST 430/654 IC50. An outline of the steps:
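GIST430 (Δ560-576) and imatinib-resistant GIST430/654 (plus V654A; grown with 100 nM imatinib) cells were plated in IMDM/15% FCS and treated next day with serially diluted compound for 45 min. Lysates were captured on anti-total-cKIT Luminex beads overnight at 4 °C and probed for phospho-Y307. IC50 was taken from percent of 0.3% DMSO control.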

The target of another experiment is T2, c-Kit(V654A) (Homo sapiens, UniProt P10721, V654A).
T2 construct: recombinant human c-Kit, amino acids 544-end containing the V654A mutation; GST (N)
The experiment in a line: c-Kit(V654A) assay (33P-ATP filter binding kinase assay). Format: biochemical. The note with it: recombinant human c-Kit aa 544-end V654A, ATP 200 μM. The method, boiled down: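 Radiometric filter-binding read-out: substrate 33P incorporation counted by scintillation after P30 filtermat washes in 75 mM phosphoric acid and methanol. Enzyme: N-GST recombinant human c-Kit aa 544-end carrying V654A.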

T1 sequence (P10721 with tags, fused parts or gaps DEL560-576/V654A): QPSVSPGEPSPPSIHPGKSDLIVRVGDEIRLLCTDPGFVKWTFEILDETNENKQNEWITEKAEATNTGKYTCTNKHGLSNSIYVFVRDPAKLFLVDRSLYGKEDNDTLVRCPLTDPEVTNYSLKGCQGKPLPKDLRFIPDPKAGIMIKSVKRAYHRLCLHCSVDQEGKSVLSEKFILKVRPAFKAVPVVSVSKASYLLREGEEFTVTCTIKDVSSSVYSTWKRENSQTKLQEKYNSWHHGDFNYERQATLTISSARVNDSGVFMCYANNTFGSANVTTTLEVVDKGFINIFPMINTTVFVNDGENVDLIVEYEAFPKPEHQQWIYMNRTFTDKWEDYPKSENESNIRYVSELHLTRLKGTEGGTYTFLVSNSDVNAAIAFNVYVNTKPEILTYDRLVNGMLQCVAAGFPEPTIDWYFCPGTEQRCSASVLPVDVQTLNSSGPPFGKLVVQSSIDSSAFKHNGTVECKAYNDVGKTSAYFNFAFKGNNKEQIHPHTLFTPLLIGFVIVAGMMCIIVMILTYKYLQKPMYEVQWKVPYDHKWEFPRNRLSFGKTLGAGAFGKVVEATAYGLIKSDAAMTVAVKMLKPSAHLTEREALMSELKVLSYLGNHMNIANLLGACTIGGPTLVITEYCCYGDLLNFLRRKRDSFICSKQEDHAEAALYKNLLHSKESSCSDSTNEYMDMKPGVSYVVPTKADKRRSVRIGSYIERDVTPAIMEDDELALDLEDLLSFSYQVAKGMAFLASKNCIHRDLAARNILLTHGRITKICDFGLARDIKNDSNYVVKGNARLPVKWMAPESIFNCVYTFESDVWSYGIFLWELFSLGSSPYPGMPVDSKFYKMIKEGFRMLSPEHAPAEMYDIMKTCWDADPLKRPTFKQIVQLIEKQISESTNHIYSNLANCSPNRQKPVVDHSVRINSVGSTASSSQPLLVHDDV
T2 sequence (P10721 544-976 V654A): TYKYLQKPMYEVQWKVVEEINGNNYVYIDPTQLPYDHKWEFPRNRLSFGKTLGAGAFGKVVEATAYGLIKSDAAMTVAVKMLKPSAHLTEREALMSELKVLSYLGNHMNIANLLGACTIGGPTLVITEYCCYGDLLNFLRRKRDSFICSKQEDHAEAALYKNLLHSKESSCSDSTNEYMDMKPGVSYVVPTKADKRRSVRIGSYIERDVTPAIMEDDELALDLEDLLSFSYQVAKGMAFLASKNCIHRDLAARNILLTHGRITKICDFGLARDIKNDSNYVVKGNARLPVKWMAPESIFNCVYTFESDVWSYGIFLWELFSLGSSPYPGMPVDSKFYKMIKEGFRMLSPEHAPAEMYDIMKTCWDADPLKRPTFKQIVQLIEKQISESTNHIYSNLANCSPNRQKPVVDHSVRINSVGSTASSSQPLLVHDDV

Take `Cn1cc(-c2ccc(CNc3cc(-c4cnc5cc(OCCCN6CCOCC6=O)ccn45)ncn3)cc2)cn1` [A88, 4-[3-({3-[6-({[4-(1-methyl-1H-pyrazol-4-yl)phenyl]methyl}amino)pyrimidin-4-yl]imidazo[1,2-a]pyridin-7-yl}oxy)propyl]morpholin-3-one]: the values for the IC50 (in experiment [1]; at c-Kit(V654A)) were 89 nM and 12 nM, respectively.

For the compound `Cn1ccc(-c2ccc(CNc3cc(-c4cnc5ccccn45)ncn3)cc2)n1` [A14, (6-Imidazo[1,2-a]24yridine-3-yl-pyrimidin-4-yl)-[4-(1-methyl-1H-pyrazol-3-yl)-benzyl]-amine], the IC50 in experiment [1] came to 200 nM; on c-Kit(V654A), 5.5 nM.

In the case of `Cn1cc(-c2ccc(CNc3cc(-c4cnc5cc(OCCCS(C)(=O)=O)ccn45)ncn3)cc2)cn1` [A143, {6-[7-(3-methanesulfonyl-propoxy)-imidazo[1,2-a]pyridin-3-yl]-pyrimidin-4-yl}-[4-(1-methyl-1H-pyrazol-4-yl)-benzyl]-amine], the results for the IC50 (in experiment [1]; on c-Kit(V654A)) were 380 nM and 21 nM, respectively.

`Cn1cc(-c2ccc(CNc3cc(-c4cnc5cc(OC6CCOC6)ccn45)ncn3)cc2)cn1` (stereo not shown) [A57, [4-(1-methyl-1H-pyrazol-4-yl)-benzyl]-{6-[7-(tetrahydro-furan-3-yloxy)-imidazo[1,2-a]pyridin-3-yl]-pyrimidin-4-yl}-amine]: the figures for the IC50 (in experiment [1]; on c-Kit(V654A)) were 270 nM and 11 nM, respectively.

For the compound `Cn1cc(-c2ccc(CNc3cc(-c4cnc5cc(OCCN6CCN(C7COC7)CC6=O)ccn45)ncn3)cc2)cn1` [A95, 1-[2-({3-[6-({[4-(1-methyl-1H-pyrazol-4-yl)phenyl]methyl}amino)pyrimidin-4-yl]imidazo[1,2-a]pyridin-7-yl}oxy)ethyl]-4-(oxetan-3-yl)piperazin-2-one], the results for the IC50 (in experiment [1]; on c-Kit(V654A)) were 210 nM and 9.8 nM, respectively.

Consider `CN1CCN(CCOc2ccn3c(-c4cc(NCc5ccc(-c6cnn(C)c6)cc5)ncn4)cnc3c2)CC1=O` [A93, 1-methyl-4-[2-({3-[6-({[4-(1-methyl-1H-pyrazol-4-yl)phenyl]methyl}amino)pyrimidin-4-yl]imidazo[1,2-a]pyridin-7-yl}oxy)ethyl]piperazin-2-one], for which the results for the IC50 (in experiment [1]; on c-Kit(V654A)) were 110 nM and 13 nM, respectively.

As to `Cn1cc(-c2ccc(CNc3cc(-c4cnc5cc(OCCCN6CCCCC6)ccn45)ncn3)cc2)cn1` [A237, N-{[4-(1-methyl-1H-pyrazol-4-yl)phenyl]methyl}-6-{7-[3-(piperidin-1-yl)propoxy]imidazo[1,2-a]pyridin-3-yl}pyrimidin-4-amine], the IC50 in experiment [1] is 35 nM; at c-Kit(V654A), 4.3 nM.

For `Cn1cc(-c2ccc(CNc3cc(-c4cnc5cc(OCCN6CCC(F)C6)ccn45)ncn3)cc2)cn1` (stereo not shown) [A89, 6-{7-[2-(3-fluoropyrrolidin-1-yl)ethoxy]imidazo[1,2-a]pyridin-3-yl}-N-{[4-(1-methyl-1H-pyrazol-4-yl)phenyl]methyl}pyrimidin-4-amine], the figures for the IC50 (in experiment [1]; on c-Kit(V654A)) were 82 nM and 8.6 nM, respectively.

On to `Cn1cc(-c2ccc(CNc3cc(-c4cnc5cc(OCCCN6CC7(COC7)C6)ccn45)ncn3)cc2)cn1` [A238, [4-(1-methyl-1H-pyrazol-4-yl)-benzyl]-(6-{7-[3-(2-oxa-6-aza-spiro[3.3]hept-6-yl)-propoxy]-imidazo[1,2-a]pyridin-3-yl}-pyrimidin-4-yl)-amine], for which the IC50 in experiment [1] stood at 62 nM; on c-Kit(V654A), 6.4 nM.

Consider `CCn1cc(-c2ccc(CNc3cc(-c4cnc5cc(OC)ccn45)ncn3)cc2)cn1` [A23, [4-(1-ethyl-1H-pyrazol-4-yl)-benzyl]-[6-(7-methoxy-imidazo[1,2-a]pyridin-3-yl)-pyrimidin-4-yl]-amine], for which the IC50 in experiment [1] stood at 66 nM; on c-Kit(V654A), 6.2 nM.

`Cn1cc(-c2ccc(CNc3cc(-c4cnc5cc(C(F)(F)F)ccn45)ncn3)cc2)cn1` [A10, N-{[4-(1-methyl-1H-pyrazol-4-yl)phenyl]methyl}-6-[7-(trifluoromethyl)imidazo[1,2-a]pyridin-3-yl]pyrimidin-4-amine]: the IC50 in experiment [1] is 1000 nM; on c-Kit(V654A), 13 nM.

Consider `COc1ccn2c(-c3cc(NCc4ccc(N5CC6CCC(C5)O6)cc4)ncn3)cnc2c1` [A38, [6-(7-methoxy-imidazo[1,2-a]pyridin-3-yl)-pyrimidin-4-yl]-[4-(8-oxa-3-aza-bicyclo[3.2.1]oct-3-yl)-benzyl]-amine], for which the IC50 was found to be 710 nM in experiment [1] and 55 nM at c-Kit(V654A).

Consider `CN(C)CCCOc1ccn2c(-c3cc(NCc4ccc(-c5cnn(C)n5)cc4)ncn3)cnc2c1` [A135, {6-[7-(3-dimethylamino-propoxy)-imidazo[1,2-a]pyridin-3-yl]-pyrimidin-4-yl}-[4-(2-methyl-2H-[1,2,3]triazol-4-yl)-benzyl]-amine], for which the IC50 is 210 nM in experiment [1] and 2 nM at c-Kit(V654A).

On to `COc1ccn2c(-c3cc(NCc4ccc(-c5cnn(C)c5)c(F)c4)ncn3)cnc2c1` [A29, N-{[3-fluoro-4-(1-methyl-1H-pyrazol-4-yl)phenyl]methyl}-6-{7-methoxyimidazo[1,2-a]pyridin-3-yl}pyrimidin-4-amine], for which the IC50 in experiment [1] worked out at 120 nM; at c-Kit(V654A), 15 nM.

On to `Cn1cc(-c2ccc(CNc3cc(-c4cnc5cc(CCN6CCC(F)(F)C6)ccn45)ncn3)cc2)cn1` [A169, (6-{7-[2-(3,3-difluoro-pyrrolidin-1-yl)-ethyl]-imidazo[1,2-a]pyridin-3-yl}-pyrimidin-4-yl)-[4-(1-methyl-1H-pyrazol-4-yl)-benzyl]-amine], for which the IC50 came to 300 nM in experiment [1] and 32 nM on c-Kit(V654A).

On to `COc1ccn2c(-c3cc(NCc4ccc(-c5ccccc5)cc4)ncn3)cnc2c1` [A3, N-({[1,1′-biphenyl]-4-yl}methyl)-6-{7-methoxyimidazo[1,2-a]pyridin-3-yl}pyrimidin-4-amine], for which the values for the IC50 (in experiment [1]; at c-Kit(V654A)) were 2600 nM and 5.5 nM, respectively.

For the compound `CN(C)CCCOc1ccn2c(-c3cc(NCc4ccc(-c5cnn(C)c5)cc4)ncn3)cnc2c1` [A132, {6-[7-(3-dimethylamino-propoxy)-imidazo[1,2-a]pyridin-3-yl]-pyrimidin-4-yl}-[4-(1-methyl-1H-pyrazol-4-yl)-benzyl]-amine], the IC50 in experiment [1] worked out at 43 nM; at c-Kit(V654A), 5 nM.

Take `CN1CCN(CCCOc2ccn3c(-c4cc(NCc5ccc(-c6cnn(C)c6)cc5)ncn4)cnc3c2)CC1` [A94, N-{[4-(1-methyl-1H-pyrazol-4-yl)phenyl]methyl}-6-{7-[3-(4-methylpiperazin-1-yl)propoxy]imidazo[1,2-a]pyridin-3-yl}pyrimidin-4-amine]: the IC50 worked out at 64 nM in experiment [1] and 6.8 nM on c-Kit(V654A).

Take `COc1ccn2c(-c3cc(NCc4ccc(-c5nc(C)no5)cc4)ncn3)cnc2c1` [A47, 6-{7-methoxyimidazo[1,2-a]pyridin-3-yl}-N-{[4-(3-methyl-1,2,4-oxadiazol-5-yl)phenyl]methyl}pyrimidin-4-amine]: the IC50 in experiment [1] came out at 190 nM; on c-Kit(V654A) it was 10 nM.

In the case of `CN1CCC(CCOc2ccn3c(-c4cc(NCc5ccc(-c6cnn(C)c6)cc5)ncn4)cnc3c2)CC1` [A129, (6-{7-[2-(1-methyl-piperidin-4-yl)-ethoxy]-imidazo[1,2-a]pyridin-3-yl}-pyrimidin-4-yl)-[4-(1-methyl-1H-pyrazol-4-yl)-benzyl]-amine], the IC50 in experiment [1] turned out to be 62 nM; at c-Kit(V654A), 6.1 nM.

As to `Cn1cc(-c2ccc(CNc3cc(-c4cnc5cc(OCc6nccn6C)ccn45)ncn3)cc2)cn1` [A113, {6-[7-(1-methyl-1H-imidazol-2-ylmethoxy)-imidazo[1,2-a]pyridin-3-yl]-pyrimidin-4-yl}-[4-(1-methyl-1H-pyrazol-4-yl)-benzyl]-amine], the IC50 in experiment [1] was 620 nM; on c-Kit(V654A), 14 nM.

As for `Cn1cc(-c2ccc(CNc3cc(-c4cnc5cc(OC6CCOCC6)ccn45)ncn3)cc2)cn1` [A55, [4-(1-methyl-1H-pyrazol-4-yl)-benzyl]-{6-[7-(tetrahydro-pyran-4-yloxy)-imidazo[1,2-a]pyridin-3-yl]-pyrimidin-4-yl}-amine], the IC50 worked out at 650 nM in experiment [1] and 22 nM at c-Kit(V654A).

As for `c1ccn2c(-c3cc(NCc4ccc(-c5ncc[nH]5)cc4)ncn3)cnc2c1` [A157, (6-imidazo[1,2-a]pyridin-3-yl-pyrimidin-4-yl)-[4-(1H-imidazol-2-yl)-benzyl]-amine], the IC50 in experiment [1] came out at 1500 nM; at c-Kit(V654A), 33 nM.

For the compound `COc1ccn2c(-c3cc(NCc4cccc(-c5cnn(C)c5)c4)ncn3)cnc2c1` [A28, [6-(7-methoxy-imidazo[1,2-a]pyridin-3-yl)-pyrimidin-4-yl]-[3-(1-methyl-1H-pyrazol-4-yl)-benzyl]-amine], the IC50 came to 1400 nM in experiment [1] and 35 nM at c-Kit(V654A).

Turning to `Cn1cc(-c2ccc(CNc3cc(-c4cnc5cc(F)ccn45)ncn3)cc2)cn1` [H1, 6-{7-fluoroimidazo[1,2-a]pyridin-3-yl}-N-{[4-(1-methyl-1H-pyrazol-4-yl)phenyl]methyl}pyrimidin-4-amine], the results for the IC50 (in experiment [1]; on c-Kit(V654A)) were 240 nM and 12 nM, respectively.

`Cn1cc(-c2ccc(CNc3cc(-c4cnc5cc(OCCN6CC7CC7C6)ccn45)ncn3)cc2)cn1` (stereo not shown) [A127, (6-{7-[2-(3-aza-bicyclo[3.1.0]hex-3-yl)-ethoxy]-imidazo[1,2-a]pyridin-3-yl}-pyrimidin-4-yl)-[4-(1-methyl-1H-pyrazol-4-yl)-benzyl]-amine]: the IC50 stood at 100 nM in experiment [1] and 6.7 nM on c-Kit(V654A).
